Earlier results in patent US20050121026A1, “Method for administration of tiotropium” (priority 2003, published 2005).

Details: bronchodilator, background statement

SMILES: C[N+]1(C)[C@@H]2C[C@@H](OC(=O)C(O)(c3cccs3)c3cccs3)C[C@H]1[C@@H]1O[C@@H]12 [tiotropium bromide]
- Duration of action (may be active for up to): up to 24 hours
